Results published in patent US8507527B2, “Method for stabilizing anti-dementia drug” (EISAI R & D Management Co., Ltd., priority 2004, dated 2013).

Assay: pH of aqueous solutions or suspensions of additives, polymers and donepezil hydrochloride
Type: physicochemical
Settings: for pH OF ADDITIVES (2.5% AQUEOUS SOLUTIONS OR SUSPENSIONS): additive of the example alone, dissolved or suspended in purified water at 2.5%

Row | Compound | pH OF ADDITIVES (2.5% AQUEOUS SOLUTIONS OR SUSPENSIONS) | pH (2.5% aqueous solution or suspension)
1 | O=C1O[C@H]([C@@H](O)CO)C(O)=C1O [ASCORBIC ACID, ascorbic acid] | 2.6 | –
2 | N[C@@H](CC(=O)O)C(=O)O [ASPARTIC ACID, aspartic acid] | 3.0 | –
3 | O=C(O)CC(O)(CC(=O)O)C(=O)O [CITRIC ACID, citric acid] | 2.0 | –
4 | Cl.N[C@@H](CS)C(=O)O [CYSTEINE HYDROCHLORIDE, cysteine hydrochloride] | 1.5 | –
5 | N[C@@H](CS)C(=O)O [CYSTEINE, cysteine] | 5.1 | –
6 | O=C([O-])CC(O)(CC(=O)[O-])C(=O)O.[Na+].[Na+] [DISODIUM CITRATE, disodium citrate] | 5.2 | –
7 | O=C([O-])CN(CCN(CC(=O)[O-])CC(=O)O)CC(=O)O.[Na+].[Na+] [DISODIUM EDETATE, disodium edetate] | 4.5 | –
8 | OC[C@H]1O[C@@H](O[C@H]2[C@H](O)[C@@H](O)C(O)O[C@@H]2CO)[C@H](O)[C@@H](O)[C@H]1O (some centres unmarked) [FlowLac100, LACTOSE] | – | 5.5
9 | NCC(=O)O [GLYCINE, glycine] | 6.2 | –
10 | CSCC[C@H](N)C(=O)O [METHIONINE, methionine] | 5.9 | –
11 | O=C1O[C@H]([C@@H](O)CO)C([O-])=C1O.[Na+] [SODIUM ASCORBATE, sodium ascorbate] | 7.5 | –
12 | N[C@@H](CC(=O)[O-])C(=O)[O-].[Na+].[Na+] [SODIUM ASPARTATE, sodium aspartate] | 6.8 | –
13 | O=C([O-])CC(O)(CC(=O)[O-])C(=O)[O-].[Na+].[Na+].[Na+] [SODIUM CITRATE, sodium citrate] | 8.3 | –
14 | sodium dihydrogen citrate [SODIUM […]] | 3.7 | –
